Measured values as given in patent US5491220A, “Surface loop structural analogues of fibroblast growth factors” (Yeda Research and Development Co., Ltd., priority 1994, dated 1996).

Legend:
[1] = system: FGF receptor on BHK cells; assay: Competition for 125I-FGF-2 binding to baby hamster kidney (BHK) cells; conditions: 50 pM 125I-FGF-2; compared with FGF-2
Protocol: FGF-2LI and FGF-2LA are tested for their capacity to compete for the binding of ^125 I-FGF-2 (Amersham Corp.) to baby hamster kidney (BHK) cells, which express high numbers of FGF receptor. The assay employed is described by Moscatelli (J. Cell. Physiol. 131: 123-130 (1987)). Briefly stated, BHK cells plated on 24-well plates are incubated with 50 pM ^125 I-FGF-2 with serial dilutions of unlabelled FGF-2, FGF-2LI or FGF-2LA loop mutants at room temperature for 1 hour or at 4° C. for 2 hours. The cells are then incubated at 4° C. for 30 minutes, washed twice with phosphate-buffered saline and treated with 20 mM HEPES (N-2-hydroxyethyl-piperazine-N'-2-ethanesulfonic acid), pH 7.5, containing 2M NaCl to remove ^125 I-FGF-2 bound to low affinity heparin sulfate binding sites. Receptor bound ^125 I-FGF-2 is recovered by treatment of the cells with 0.5% Triton X-100 in 0.1M sodium phosphate, pH 8, and counted in a γ-counter. Assays are conducted in duplicate.

[2] = system: FGF receptor type 1 (FGFR1); assay: Competition binding to FGF-receptor type 1 on NIH 3T3 cells; conditions: compared with FGF-2
[3] = system: bovine vascular endothelial cells derived from adult aortic arch; assay: Mitogenic activity, endothelial cell proliferation assay; assay type: cell-based; conditions: 5 days in culture
Protocol: The mitogenic activity of FGF-2, FGF-2LI and FGF-2LA are determined using bovine vascular endothelial cells derived from adult aortic arch as previously described (Gospardarowicz, D., et al., Proc. Nat. Acad. Sci. 81: 6963-6967 (1984)). Briefly, cells are seeded at an initial density of 0.8×10^4 cells per 24-well plate in 0.5 ml Dulbecco's modified Eagle's medium (DMEM) containing 10% calf serum (Hyclone, Logan, Utah) supplemented with penicillin (100 units/ml), streptomycin (100 ug/ml) and L-glutamine (2 mM). Two hours after plating, 20 ul aliquots of serial dilutions of FGF-2 and the mutants in DMEM are added. Inhibition of FGF-2-stimulated growth was determined at a fixed concentration of FGF-2, while that of the mutant proteins is varied. After 5 days in culture, duplicate plates are trypsinized and cell densities determined by cell counting in a Coulter counter. Determinations are conducted in duplicate.

ABAE cells = assay: In vitro angiogenesis: capillary-like tube formation by ABAE cells on collagen gel; assay type: cell-based, bovine; conditions: ABAE cells on type I collagen gel, 48 hours; compared with wild-type FGF-2
Protocol: In vitro anglogenesis evaluations are made by observing whether the mutants induce capillary-like structures in ABAE cells cultured on a 3-dimensionalcollagen gel. Three-dimensional collagen gel plates (24-well) are prepared by adding 0.5 ml chilled solution of 0.7 mg/ml rat-tail type I collagen (Becton Dickinson Labwares, Bedford, Mass.) containing DMEM and adjusting to neutral pH with NaHCO3 to each well. After formation of collagen gel (about 1-2 mm thickness), ABAE cells are seeded at 50,000 cells/well. The cultures are maintained at 37° C. in DMEM containing 10% calf serum (Hyclone, Logan, Utah) supplemented with penicillin (100 units/ml), streptomycin (100 μg/ml) and L-glutamine (2 mM) until the cultures reach confluency, usually in 5 days by which time the cells form a monolayer on the gel. The medium is then replaced with fresh medium containing different concentrations of FGF-2 or mutants. […]
The abundance of the capillary-like structures formed by ABAE cells is analyzed by using a Kontron IBAS Image Analyzer assisted with a Hamamatsu C2400 video camera and a Zeiss Axioshop microscope. […] The extent of in vitro angiogenesis is then measured as a percentage of the white areas. […] Three to four areas of each well are examined by image analysis and the mean value and standard deviation are determined. […]

[4] = system: soluble FGF receptor 1 (FGFR-1; flg); assay: Competition binding to soluble FGFR1 (displacement of 125I-FGF-2); parameters: species or system murine; conditions: 200 ng/ml heparin
Protocol: Binding of FGF proteins to different FGF receptors are determined in this example, by measuring the degree of competition for binding to different types of FGF-receptor proteins between a radioiodinated FGF protein and various unlabelled proteins, or by the direct binding of radioiodinated FGF's to various receptor proteins. Binding studies are confirmed by chemical cross-linking of the radioiodinated FGF to soluble receptors in the presence and absence of excess unlabelled FGF.
Soluble FGF receptor proteins are constructed by cloning of the extracellular region of murine FGF receptor 1 (FGFR-1; flg), FGF receptor 2 (FGFR-2; bek) or the KGF receptor (FGFR(IIIb); K-sam) into the alkaline phosphatase-tag expression vector, which encodes for a secreted form of placental alkaline phosphatase (AP). The FGF receptor alkaline phosphatase (FRAP) plasmids are cotransfected into NIH 3T3 cells by electroporation with a selectable neomycin resistance gene. Clonies are selected in G418 (600 μg/ml) and screened for secreted AP enzyme activity in the conditioned medium. Clones of each receptor which produced a high level of AP activity (2 to 4 A405 units/min/ml) are then used to produce conditioned medium for binding assays.
Components of the soluble receptor binding reaction mixture include FRAP-conditioned medium (0.24 OD units/min), 2 ng/ml^125 I-FGFs and 200 ng/ml heparin. The FGF:heparin:FRAP terniary complex is immunoprecipitated with 20 μl of a 1:1 slurry of anti-AP monoclonal antibodies coupled to protein A Sepharose®. All components are mixed at room temperature. The total volume is adjusted to 200 μl by addition of DMEM containing 0.1% bovine serum albumin. Binding is allowed to proceed for 1 to 2 hours at 24° C., after which time bound receptor complex or the ligand is recovered by centrifugation at 4° C. (10 s at 2,000×g). The pelleted material is washed twice with 500 μl of an ice cold buffer containing HEPES (20 mM), NaCl (150 mM), glycerol (10%) and Triton® X-100 (1%). ^125 I-FGF binding is quantitated by counting of the samples in a gamma counter (LKB). Alternatively, AP enzyme activity of the FRAP protein is determined by transferring the FRAP receptor bound to […] to a flat-bottom microtiter plate in a volume of 50 μl of PBS. The reaction is initiated by addition of substrate (50 μl of 2× solution of AP assay buffer containing 2M diethanoiamine, 1 mM MgCl2, 20 mM homoarginine and 12 mM p-nitrophenyl phosphate). The reaction is followed at room temperature at 405 nm in a kinetic microplate reader.

Binding to soluble FGFR1 (competition with 125I-FGF-2) [4]	Substance	Capacity to compete with 125I-FGF-2 binding to FGF receptors on BHK cells [1]	Competition binding curve to FGF receptor type 1 on NIH 3T3 cells [2]	Mitogenic potency compared with wild-type factor [3]	Induction of tube formation (capillary-like structures) (ABAE cells)	Mitogenic potency, times less potent than FGF-2 [3] [times]
bind equally well	FGF-2LA: human FGF-2 with loop residues 118-122 replaced by Lys-Lys-His-Ala-Glu-Lys-His from bovine FGF-1 (SEQ ID NO 16) (KKHAEKH; printed: Lys-Lys-His-Ala-Glu-Lys-His)	similar	identical to that for FGF-2	as potent as the wild-type factor	comparable with the wildtype	
bind equally well	FGF-2LI: human FGF-2 with loop residues 118-122 replaced by Ala-Gln-Phe-Pro-Asn from human interleukin-1β (SEQ ID NO 15)	similar	identical to that for FGF-2		much less than that by wild-type FGF-2	5 to 10
